Experimental data from US12077503B2, “Substituted cyclic amides and their use as herbicides” (FMC CORPORATION, priority 2015, dated 2024).

How the values were obtained:
Experiment in all cases: Test C preemergence
Assay type in all cases: in vivo
[1] = test system: Galium (catchweed bedstraw, Galium aparine); conditions: for Plant response rating, Galium: scale 0 to 100, 0 no effect, 100 complete control
Procedure, shortened: (§1)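 Seeds in loam-sand soil treated preemergence, or plants in peat-based medium sprayed postemergence at 2–18 cm (1- to 4-leaf stage), with compound in a non-phytotoxic solvent mixture containing surfactant. Greenhouse-held 13–15 d, then visually rated against controls on a 0–100 scale (0 = no effect, 100 = complete control); dash = not tested.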

[2] = test system: barnyardgrass (Echinochloa crus-galli); conditions: for Plant response rating, Barnyardgrass: scale 0 to 100, 0 no effect, 100 complete control
Procedure, shortened: as §1

[3] = test system: blackgrass (Alopecurus myosuroides); conditions: for Plant response rating, Blackgrass: scale 0 to 100, 0 no effect, 100 complete control
Procedure, shortened: as §1

[4] = test system: corn (Zea mays); conditions: for Plant response rating, Corn: scale 0 to 100, 0 no effect, 100 complete control
Procedure, shortened: as §1

[5] = test system: crabgrass, large (large crabgrass, Digitaria sanguinalis); conditions: for Plant response rating, Crabgrass, Large: scale 0 to 100, 0 no effect, 100 complete control
Procedure, shortened: as §1

[6] = test system: foxtail, giant (giant foxtail, Setaria faberii); conditions: for Plant response rating, Foxtail, Giant: scale 0 to 100, 0 no effect, 100 complete control
Procedure, shortened: as §1

[7] = test system: johnsongrass (Sorghum halepense); conditions: for Plant response rating, Johnsongrass: scale 0 to 100, 0 no effect, 100 complete control
Procedure, shortened: as §1

[8] = test system: lambsquarters (Chenopodium album); conditions: for Plant response rating, Lambsquarters: scale 0 to 100, 0 no effect, 100 complete control
Procedure, shortened: as §1

[9] = test system: morningglory (Ipomoea coccinea); conditions: for Plant response rating, Morningglory: scale 0 to 100, 0 no effect, 100 complete control
Procedure, shortened: as §1

[10] = test system: nutsedge, yellow (yellow nutsedge, Cyperus esculentus); conditions: for Plant response rating, Nutsedge, Yellow: scale 0 to 100, 0 no effect, 100 complete control
Procedure, shortened: as §1

[11] = test system: oilseed rape (Brassica napus); conditions: for Plant response rating, Oilseed Rape: scale 0 to 100, 0 no effect, 100 complete control
Procedure, shortened: as §1

[12] = test system: ragweed (common ragweed, Ambrosia elatior); conditions: for Plant response rating, Ragweed: scale 0 to 100, 0 no effect, 100 complete control
Procedure, shortened: as §1

[13] = test system: ryegrass, Italian (Italian ryegrass, Lolium multiflorum); conditions: for Plant response rating, Ryegrass, Italian: scale 0 to 100, 0 no effect, 100 complete control
Procedure, shortened: as §1

[14] = test system: soybean (Glycine max); conditions: for Plant response rating, Soybean: scale 0 to 100, 0 no effect, 100 complete control
Procedure, shortened: as §1

[15] = test system: velvetleaf (Abutilon theophrasti); conditions: for Plant response rating, Velvetleaf: scale 0 to 100, 0 no effect, 100 complete control
Procedure, shortened: as §1

[16] = test system: waterhemp (common waterhemp, Amaranthus rudis); conditions: for Plant response rating, Waterhemp: scale 0 to 100, 0 no effect, 100 complete control
Procedure, shortened: as §1

[17] = test system: wheat (winter wheat, Triticum aestivum); conditions: for Plant response rating, Wheat: scale 0 to 100, 0 no effect, 100 complete control
Procedure, shortened: as §1

[18] = 31 g ai/ha, 0 is no effect, 100 is complete control

Question: With `O=C1NCC(c2cccc(OC(F)(F)C(F)F)c2)C1C(=O)Nc1ccccc1F` (racemic) [Compound 695] as the compound, how does the “Plant response rating (scale of 0 to 100), Galium” value [1, 18] read?
Answer: Its value is 50.

Question: And the “Plant response rating, Galium” value ([1]; 62 g ai/ha)?
Answer: The value was 80.

Question: And the “Plant response rating, Galium” value ([1]; 125 g ai/ha)?
Answer: Its value is 85.

Question: And the “Plant response rating, Galium” value ([1]; 250 g ai/ha)?
Answer: The value was 90.

Question: What about the “Plant response rating (scale of 0 to 100), Barnyardgrass” value [2, 18] of the same compound?
Answer: The value was 90.

Question: And the “Plant response rating, Barnyardgrass” value ([2]; 62 g ai/ha)?
Answer: Its value is 90.

Question: What about the “Plant response rating, Barnyardgrass” value ([2]; 125 g ai/ha) of the same compound?
Answer: Its value is 90.

Question: What about the “Plant response rating, Barnyardgrass” value ([2]; 250 g ai/ha) of the same compound?
Answer: The value was 90.

Question: And the “Plant response rating (scale of 0 to 100), Blackgrass” value [3, 18]?
Answer: The value was 0.

Question: And the “Plant response rating, Blackgrass” value ([3]; 62 g ai/ha)?
Answer: The value was 20.

Question: What about the “Plant response rating, Blackgrass” value ([3]; 125 g ai/ha) of the same compound?
Answer: Its value is 90.

Question: What about the “Plant response rating, Blackgrass” value ([3]; 250 g ai/ha) of the same compound?
Answer: Its value is 90.

Question: And the “Plant response rating (scale of 0 to 100), Corn” value [4, 18]?
Answer: Its value is 0.

Question: What about the “Plant response rating, Corn” value ([4]; 62 g ai/ha) of the same compound?
Answer: The value was 25.

Question: And the “Plant response rating, Corn” value ([4]; 125 g ai/ha)?
Answer: Its value is 70.

Question: What about the “Plant response rating, Corn” value ([4]; 250 g ai/ha) of the same compound?
Answer: Its value is 80.

Question: What about the “Plant response rating (scale of 0 to 100), Crabgrass, Large” value [5, 18] of the same compound?
Answer: Its value is 90.

Question: What about the “Plant response rating, Crabgrass, Large” value ([5]; 62 g ai/ha) of the same compound?
Answer: The value was 90.

Question: What about the “Plant response rating, Crabgrass, Large” value ([5]; 125 g ai/ha) of the same compound?
Answer: The value was 95.

Question: And the “Plant response rating, Crabgrass, Large” value ([5]; 250 g ai/ha)?
Answer: Its value is 95.

Question: And the “Plant response rating (scale of 0 to 100), Foxtail, Giant” value [6, 18]?
Answer: The value was 80.

Question: And the “Plant response rating, Foxtail, Giant” value ([6]; 62 g ai/ha)?
Answer: The value was 85.

Question: What about the “Plant response rating, Foxtail, Giant” value ([6]; 125 g ai/ha) of the same compound?
Answer: Its value is 90.

Question: What about the “Plant response rating, Foxtail, Giant” value ([6]; 250 g ai/ha) of the same compound?
Answer: Its value is 90.

Question: What about the “Plant response rating (scale of 0 to 100), Johnsongrass” value [7, 18] of the same compound?
Answer: The value was 40.

Question: And the “Plant response rating, Johnsongrass” value ([7]; 62 g ai/ha)?
Answer: Its value is 80.

Question: What about the “Plant response rating, Johnsongrass” value ([7]; 125 g ai/ha) of the same compound?
Answer: Its value is 80.

Question: And the “Plant response rating, Johnsongrass” value ([7]; 250 g ai/ha)?
Answer: The value was 85.

Question: What about the “Plant response rating (scale of 0 to 100), Lambsquarters” value [8, 18] of the same compound?
Answer: The value was 25.

Question: What about the “Plant response rating, Lambsquarters” value ([8]; 62 g ai/ha) of the same compound?
Answer: The value was 40.

Question: And the “Plant response rating, Lambsquarters” value ([8]; 125 g ai/ha)?
Answer: The value was 65.

Question: What about the “Plant response rating, Lambsquarters” value ([8]; 250 g ai/ha) of the same compound?
Answer: Its value is 80.

Question: What about the “Plant response rating (scale of 0 to 100), Morningglory” value [9, 18] of the same compound?
Answer: Its value is 0.

Question: And the “Plant response rating, Morningglory” value ([9]; 62 g ai/ha)?
Answer: The value was 0.

Question: And the “Plant response rating, Morningglory” value ([9]; 125 g ai/ha)?
Answer: The value was 5.

Question: And the “Plant response rating, Morningglory” value ([9]; 250 g ai/ha)?
Answer: Its value is 10.

Question: What about the “Plant response rating (scale of 0 to 100), Nutsedge, Yellow” value [10, 18] of the same compound?
Answer: Its value is 0.

Question: And the “Plant response rating, Nutsedge, Yellow” value ([10]; 62 g ai/ha)?
Answer: Its value is 0.

Question: And the “Plant response rating, Nutsedge, Yellow” value ([10]; 125 g ai/ha)?
Answer: The value was 0.

Question: And the “Plant response rating, Nutsedge, Yellow” value ([10]; 250 g ai/ha)?
Answer: The value was 0.

Question: And the “Plant response rating (scale of 0 to 100), Oilseed Rape” value [11, 18]?
Answer: The value was 0.

Question: And the “Plant response rating, Oilseed Rape” value ([11]; 62 g ai/ha)?
Answer: Its value is 40.

Question: What about the “Plant response rating, Oilseed Rape” value ([11]; 125 g ai/ha) of the same compound?
Answer: Its value is 85.

Question: What about the “Plant response rating, Oilseed Rape” value ([11]; 250 g ai/ha) of the same compound?
Answer: The value was 80.

Question: What about the “Plant response rating (scale of 0 to 100), Ragweed” value [12, 18] of the same compound?
Answer: The value was 35.

Question: And the “Plant response rating, Ragweed” value ([12]; 62 g ai/ha)?
Answer: Its value is 70.

Question: And the “Plant response rating, Ragweed” value ([12]; 125 g ai/ha)?
Answer: Its value is 75.

Question: And the “Plant response rating, Ragweed” value ([12]; 250 g ai/ha)?
Answer: Its value is 80.

Question: And the “Plant response rating (scale of 0 to 100), Ryegrass, Italian” value [13, 18]?
Answer: Its value is 0.

Question: And the “Plant response rating, Ryegrass, Italian” value ([13]; 62 g ai/ha)?
Answer: Its value is 60.

Question: And the “Plant response rating, Ryegrass, Italian” value ([13]; 125 g ai/ha)?
Answer: The value was 30.

Question: And the “Plant response rating, Ryegrass, Italian” value ([13]; 250 g ai/ha)?
Answer: Its value is 30.

Question: What about the “Plant response rating (scale of 0 to 100), Soybean” value [14, 18] of the same compound?
Answer: The value was 0.

Question: And the “Plant response rating, Soybean” value ([14]; 62 g ai/ha)?
Answer: Its value is 0.

Question: What about the “Plant response rating, Soybean” value ([14]; 125 g ai/ha) of the same compound?
Answer: Its value is 0.

Question: What about the “Plant response rating, Soybean” value ([14]; 250 g ai/ha) of the same compound?
Answer: The value was 0.

Question: What about the “Plant response rating (scale of 0 to 100), Velvetleaf” value [15, 18] of the same compound?
Answer: The value was 0.

Question: And the “Plant response rating, Velvetleaf” value ([15]; 62 g ai/ha)?
Answer: The value was 10.

Question: And the “Plant response rating, Velvetleaf” value ([15]; 125 g ai/ha)?
Answer: The value was 30.

Question: And the “Plant response rating, Velvetleaf” value ([15]; 250 g ai/ha)?
Answer: The value was 55.

Question: What about the “Plant response rating (scale of 0 to 100), Waterhemp” value [16, 18] of the same compound?
Answer: Its value is 55.

Question: What about the “Plant response rating, Waterhemp” value ([16]; 62 g ai/ha) of the same compound?
Answer: The value was 75.

Question: And the “Plant response rating, Waterhemp” value ([16]; 125 g ai/ha)?
Answer: Its value is 70.

Question: And the “Plant response rating, Waterhemp” value ([16]; 250 g ai/ha)?
Answer: Its value is 85.

Question: What about the “Plant response rating (scale of 0 to 100), Wheat” value [17, 18] of the same compound?
Answer: Its value is 40.

Question: And the “Plant response rating, Wheat” value ([17]; 62 g ai/ha)?
Answer: Its value is 5.

Question: And the “Plant response rating, Wheat” value ([17]; 125 g ai/ha)?
Answer: The value was 35.

Question: And the “Plant response rating, Wheat” value ([17]; 250 g ai/ha)?
Answer: Its value is 60.
